From patent publication US20180311356A1, “METHOD TO INHIBIT ENDOTHELIAL-TO-MESENCHYMAL TRANSITION” (THE CHILDREN'S MEDICAL CENTER CORPORATION, priority 2015, published 2018)

What was measured:
[1] = tested on: early stage diffuse cutaneous systemic sclerosis; settings: cited from earlier work
[2] = tested on: mitral VEC; test: Cellular migration assay (Transwell), mitral VEC clones; assay type: cell-based, Ovine; settings: for EndMT-increased migration towards serum and bFGF: TGFβ-treated mitral VEC clones (n=3), inhibitor 1.0 μM 30 min before and during 6 hour assay
Description: (§1) The lower chambers contained 0.1% BSA/EBM-2 media alone or EBM with serum and basic FGF as a chemoattractants. Cells were allowed to migrate for 6 hours at 37° C. (FIG. 6) Cells that migrated through the pores were fixed with methanol and stained with Eosin-Y, Azure A and Methylene Blue for visualization and quantification using Three Step Stain Set (VWR, PA, USA #48218-567).

[3] = tested on: mitral VEC; test: EndMT assay with qPCR in TGFβ1-treated mitral VEC clones; assay type: cell-based, Ovine; settings: for NFATc1 mRNA / αSMA, Slug, MMP-2, collagen 1, collagen 3, TGFβ1, TGFβ2 and TGFβ3 mRNA levels: inhibitor 0.5 μM during the 4 day TGFβ1 treatment, mitral VEC clones
Description: (§2) Ovine mitral VEC and CAEC were plated at 10,000 cells/cm^2 on gelatin-coated dishes. After 24 hours, EBM-B was replaced with fresh EBM-B containing 1 ng/ml human TGFβ1 (R&D Systems, MN, USA). Cells were harvested with Liberase ([…]) 96 hours later, and used for flow cytometry. Cells were analyzed simultaneously for VE-cadherin, α-SMA and CD45 by flow cytometry as described above.
(§3) Total cellular RNA was extracted from mitral VEC clones (C5, D1, E5, E10 and E10-2) and CAEC (n=2) with an RNeasy Micro extraction kit (Qiagen, Valencia, Calif., #74004). Reverse transcriptase reactions were performed using an iScript cDNA Synthesis Kit (Bio-Rad, CA, USA #170-8890). qPCR was performed using Kapa Sybr Fast ABI Prism 2×qPCR Master Mix (KAPA BioSystems, MA, USA # KK4604). Amplification was carried out in an ABI 7500 (Applied Biosystems, Foster City, Calif.). A standard curve for each gene was generated to determine amplification efficiency. RPS9 was used as housekeeping gene expression reference. Fold increases in gene expression were calculated according to 2 delta Ct method^28,29, with each amplification reaction performed in triplicate.

[4] = tested on: carotid artery endothelial cells (CAEC); test: EndMT assay with qPCR in TGFβ1-treated CAEC; assay type: cell-based, Ovine; settings: for EndMT and fibrosis marker mRNA in CAEC: presence or absence of inhibitor
Description: as §2, §3

[5] = tested on: carotid artery endothelial cells (CAEC); test: Cellular migration assay (Transwell), CAEC; assay type: cell-based, Ovine; settings: 6 hour assay; for Migration of CAEC, response to inhibitor: control and TGFβ1-treated CAEC, inhibitor 1.0 μM
Description: as §1

[6] = tested on: TGF-β; settings: cited from earlier work
[7] = tested on: carotid artery endothelial cells (CAEC); test: EndMT assay with flow cytometry, CAEC; assay type: cell-based, Ovine; settings: TGFβ-treated and non-treated CAECs
Description: (§4) Ovine MVs were minced and digested for 30 minutes at 37° C. with Liberase (Roche Diagnostics, IN, USA, #5401119001), a blend of purified collagenases I and II. Isolated cells were fixed using Flow Cytometry Fixation Buffer (R&D Systems, MN, USA, #FC004) and labeled in Flow Cytometry Permeabilization/Wash Buffer I (R&D Systems, MN, USA, #FC005) for 45 minutes (100,000 cells/100 μl Buffer I). Murine anti-human CD45-FITC or -APC (1:50; AbD Serotec, NC, USA, # MCA2220F and #559864), VE-cadherin-PE or -FITC (1:100; R&D Systems, MN, USA, # FAB9381P and AbD Serotec, NC, USA, # AHP628F), and α-smooth muscle actin (αSMA)-APC or -PE (1:100; R&D Systems, MN, USA, # IC1420P and # IC1420A) were used.
as §2

[8] = tested on: mitral VEC; test: EndMT assay with flow cytometry, mitral VEC clones; assay type: cell-based, Ovine
Description: as §4, §2

[9] = target: T1, TGF-beta3 (Homo sapiens, UniProt P10600); settings: cited from earlier work
T1 sequence (P10600 301-412 limits assumed): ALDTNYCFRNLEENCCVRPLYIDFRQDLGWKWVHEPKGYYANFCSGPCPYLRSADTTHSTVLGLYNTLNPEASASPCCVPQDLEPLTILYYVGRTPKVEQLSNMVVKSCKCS

[10] = tested on: scar formation; settings: first clinical trials; intractable glaucoma patients, trabeculectomy; cited from earlier work
[11] = target: T2, TGF-beta2 (Homo sapiens, UniProt P61812); settings: cited from earlier work
T2 sequence (P61812 303-414 limits assumed): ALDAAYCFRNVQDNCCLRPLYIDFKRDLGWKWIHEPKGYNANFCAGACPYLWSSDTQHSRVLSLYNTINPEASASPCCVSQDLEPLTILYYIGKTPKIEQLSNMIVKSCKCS

[12] = tested on: scarring after glaucoma surgery; settings: rabbits; cited from earlier work
[13] = listed as CD45 phosphatase inhibitor
[14] = qPCR, listed as CD45 phosphatase inhibitor

## CAT-192: a TGF-β1 neutralizing antibody
[1]; in vivo
  adverse events: more adverse events
[1]; phase I/II trial NCT00043706
  effect on early stage diffuse cutaneous systemic sclerosis: did not show effect

## CC(C)(C)C(=O)Nc1ccc2c(c1)C(=O)C(=O)c1ccccc1-2 [CD45 PTPase inhibitor, N-(9,10-dioxo-9,10-dihydro-phenanthren-2-yl)-2,2-dimethyl propionamide]
[2]
  EndMT-increased migration towards serum and bFGF: significantly inhibited
[2]; [13]
  EndMT-increased migration towards serum and bFGF: specifically blocks
[3]; qPCR
  NFATc1 mRNA: restored
  αSMA, Slug, MMP-2, collagen 1, collagen 3, TGFβ1, TGFβ2 and TGFβ3 mRNA levels: significantly reduced
[3]; [14]
  NFATc1 mRNA: blocks the decrease
  αSMA, Slug, MMP-2, collagen 1, collagen 3, TGFβ1, TGFβ2 and TGFβ3 mRNA levels: reduces
[3]; summary statement
  induction of 7 EndMT/fibrosis markers (α-SMA, Slug, MMP2, NFATc1, TGFβ2, collagen 1 and collagen 3): blocks
[4]
  EndMT and fibrosis marker mRNA in CAEC: no changes
[4]; [13]
  EndMT and fibrosis marker mRNA in CAEC: no effect
[5]
  Migration of CAEC, response to inhibitor: no response
[5]; [13]
  Migration of CAEC, response to inhibitor: no effect

## Cc1ccc(=O)n(-c2ccccc2)c1 [Pirfenidone, 5-methyl-1-phenyl-2(1H)-pyridone]
[6]
  TGF-β promoter activity, TGF-β protein secretion, TGF-β-induced Smad2 phosphorylation and generation of reactive oxygen species: reduces

## TGFβ1: human TGFβ1 (R&D Systems), used at 1 ng/ml to induce EndMT
[7]
  CD45 or αSMA expression in CAEC, flow cytometry: did not express
[2]; mitral VEC clones (n=3), TGFβ1 4 days, 6 hour assay
  migration towards serum and bFGF after TGFβ treatment: significantly increased
[3]; TGFβ1-treated mitral VEC clones, qPCR
  Collagen 1, collagen 3, TGFβ1, TGFβ2 and TGFβ3 mRNA transcripts: increased
[3]; TGFβ1-treated mitral VEC, qPCR
  Slug, MMP2 and NFATc1 mRNA: modulated as expected
[3]; five mitral VEC clones, TGFβ1 4 days, qPCR
  CD45 and αSMA mRNA: significant increases
[4]
  CD45, VE-cadherin or αSMA mRNA levels in CAEC: No changes
[8]; TGFβ1-treated mitral VEC clones
  α-SMA, flow cytometry: significantly increased
[8]; TGFβ1-treated mitral VEC, data not shown
  CD11b and CD14 expression, flow cytometry: No expression was detected
[8]; four additional mitral VEC clones treated with TGFβ1 1 ng/ml 96 hours
  cells positive for CD45: 19-88%
[8]; mitral VEC clone E10, 1 ng/ml TGFβ1, 96 hours
  CD45 and αSMA expression, flow cytometry: strong induction
[8]; seven mitral VEC clones, 4 day exposure to TGFβ1
  CD45, flow cytometry: significantly increased
[5]; CAEC
  migration of CAEC after TGFβ treatment: no increase

B1: CAT-152: fully human TGF-beta2 neutralizing antibody (antibody, chains of the INN, looked up, V domains shown)
VH: EVQLVESGGGVVQPGRSLRLSCAASGFTFSSYGMHWVRQAPGKGLEWVAVIWYDGSNKYYADSVKGRFTISRDNSKNTLYLQMDSLRAEDTAVYYCGRTLESSLWGQGTLVTVSS
VL: SSELTQDPAVSVALGQTVRITCQGDSLRSYYASWYQQKPGQAPVLVIYGKNNRPSGIPDRFSGSSSGNTASLTITGAQAEDEADYYCNSRDSSSTHRGVFGGGTKLTVL
[9]
  affinity for TGF-beta3: lower affinity
[10]
  scar formation: possible effects
[11]
  affinity for TGF-beta2: high affinity
[12]
  scarring after glaucoma surgery: capable of inhibiting
